For 20 compounds, IC50 results are on record in US9181219B2, “Compounds of modulating TRPV3 function” (Hydra Biosciences, Inc., priority 2006, dated 2015).

Like-named read-outs stand apart in the source and are kept apart here.

What all share (format): cell-based
One series has as its target TRPV3 (Homo sapiens (Human), UniProt Q8NET8). The experiment in a line: Whole-cell patch clamp of TRPV3 mediated inward current. The settings on record: HEK293/TREx TRPV3 cells, approximate values. The text has this:
Whole-cell patch clamp experiments permit the detection of currents through the TRPV3 channel in the cell line described above. A glass electrode is brought into contact with a single cell and the membrane is then ruptured, permitting control of the voltage of the cell membrane and measurement of currents flowing across the membrane using the amplifier attached to the electrode. A perfusion system permits control of the extracellular solution, including the addition of blockers and activators of the current. The current can be activated by heating this solution to 28° C. or warmer or by addition of 20 μM 2-APB to the solution.
TRPV3 cells were induced 20-48 hours, removed from growth plates, and replated at low density (to attain good single-cell physical separation) on glass coverslips for measurement. In some cases, cells were grown in low density overnight on glass coverslips. Patch clamp recordings were made in the whole-cell mode with a holding potential of −40 mV. Every 5 seconds, a voltage ramp was applied from −120 to +100 mV, 400 ms in duration. Currents elicited were quantified at −80 mV and +80 mV. The internal solution consisted of 140 mM cesium aspartate, 10 mM EGTA, 2.27 mM MgCl2, 1.91 mM CaCl2 and 10 mM HEPES, pH to 7.2 with KOH; with 50 nM calculated free Ca^2+. External solution was Ringer's solution described above. Upon addition of 2-APB or upon heating of the extraceullar solution as described above, TRPV3 current was induced only in TRPV3-expressing cells and not in parental HEK293 TREx cells. […] Removal of the stimulus caused most of the current to go away, and inhibitor addition could still inhibit this current.
The data includes approximate IC50 values for inhibition of TRPV3 mediated inward current as assessed by patch-clamp.
For orientation: Patch clamp records ionic current or voltage across a cell membrane.

For the next series, the target named is hERG (Homo sapiens (Human), UniProt Q12809). The experiment in a line: Patch clamp selectivity, hERG current. The settings on record: tested at concentrations up to 30 μM, IC50 estimated. From the text: (§1) To determine whether compounds were selective for TRPV3 inhibition over inhibition of other ion channel types, the human ERG (hERG), NaV1.2, and TRPV1 (hTRPV1) channels and the rat TRPV6 (rTRPV6) channel were also stably transfected and expressed or induced to express in mammalian cell lines. The methods for measuring currents from these channels are well-established and have been described in numerous publications (See, Weerapura et al., 2002, J Physiology 540: 15-27; Rush et al., 2005, J Physiology 564: 808-815; Caterina et al., 1997, Nature 389: 816-824; Hoenderhop et al., 2001, J Physiology 537: 747-761; Clapham et al., 2003, Pharmacol Rev 55: 591-596). Compounds of interest were tested against these channels at concentrations up to 30 μM, and the resulting data were used to estimate IC50.

The target of a further series is NaV1.2 (Homo sapiens (Human), UniProt Q99250). The experiment in a line: Qpatch selectivity, NaV1.2 inward current. The following applies: tested at concentrations up to 30 μM, IC50 estimated.
Text: as §1

The target of the next series is TRPV1 (hTRPV1) (Homo sapiens (Human), UniProt Q8NER1). The experiment in a line: Patch clamp selectivity, TRPV1 inward current. The following applies: tested at concentrations up to 30 μM, IC50 estimated.
Text: as §1

The mark [1] stands for this setting: Phase 1 inward current, read-out: TRPV3 Phase 1 IC50 inward.
The mark [2] stands for this setting: Phase 2 inward current, read-out: TRPV3 Phase 2 IC50 inward.

Chain of NaV1.2 (Q99250 whole entry): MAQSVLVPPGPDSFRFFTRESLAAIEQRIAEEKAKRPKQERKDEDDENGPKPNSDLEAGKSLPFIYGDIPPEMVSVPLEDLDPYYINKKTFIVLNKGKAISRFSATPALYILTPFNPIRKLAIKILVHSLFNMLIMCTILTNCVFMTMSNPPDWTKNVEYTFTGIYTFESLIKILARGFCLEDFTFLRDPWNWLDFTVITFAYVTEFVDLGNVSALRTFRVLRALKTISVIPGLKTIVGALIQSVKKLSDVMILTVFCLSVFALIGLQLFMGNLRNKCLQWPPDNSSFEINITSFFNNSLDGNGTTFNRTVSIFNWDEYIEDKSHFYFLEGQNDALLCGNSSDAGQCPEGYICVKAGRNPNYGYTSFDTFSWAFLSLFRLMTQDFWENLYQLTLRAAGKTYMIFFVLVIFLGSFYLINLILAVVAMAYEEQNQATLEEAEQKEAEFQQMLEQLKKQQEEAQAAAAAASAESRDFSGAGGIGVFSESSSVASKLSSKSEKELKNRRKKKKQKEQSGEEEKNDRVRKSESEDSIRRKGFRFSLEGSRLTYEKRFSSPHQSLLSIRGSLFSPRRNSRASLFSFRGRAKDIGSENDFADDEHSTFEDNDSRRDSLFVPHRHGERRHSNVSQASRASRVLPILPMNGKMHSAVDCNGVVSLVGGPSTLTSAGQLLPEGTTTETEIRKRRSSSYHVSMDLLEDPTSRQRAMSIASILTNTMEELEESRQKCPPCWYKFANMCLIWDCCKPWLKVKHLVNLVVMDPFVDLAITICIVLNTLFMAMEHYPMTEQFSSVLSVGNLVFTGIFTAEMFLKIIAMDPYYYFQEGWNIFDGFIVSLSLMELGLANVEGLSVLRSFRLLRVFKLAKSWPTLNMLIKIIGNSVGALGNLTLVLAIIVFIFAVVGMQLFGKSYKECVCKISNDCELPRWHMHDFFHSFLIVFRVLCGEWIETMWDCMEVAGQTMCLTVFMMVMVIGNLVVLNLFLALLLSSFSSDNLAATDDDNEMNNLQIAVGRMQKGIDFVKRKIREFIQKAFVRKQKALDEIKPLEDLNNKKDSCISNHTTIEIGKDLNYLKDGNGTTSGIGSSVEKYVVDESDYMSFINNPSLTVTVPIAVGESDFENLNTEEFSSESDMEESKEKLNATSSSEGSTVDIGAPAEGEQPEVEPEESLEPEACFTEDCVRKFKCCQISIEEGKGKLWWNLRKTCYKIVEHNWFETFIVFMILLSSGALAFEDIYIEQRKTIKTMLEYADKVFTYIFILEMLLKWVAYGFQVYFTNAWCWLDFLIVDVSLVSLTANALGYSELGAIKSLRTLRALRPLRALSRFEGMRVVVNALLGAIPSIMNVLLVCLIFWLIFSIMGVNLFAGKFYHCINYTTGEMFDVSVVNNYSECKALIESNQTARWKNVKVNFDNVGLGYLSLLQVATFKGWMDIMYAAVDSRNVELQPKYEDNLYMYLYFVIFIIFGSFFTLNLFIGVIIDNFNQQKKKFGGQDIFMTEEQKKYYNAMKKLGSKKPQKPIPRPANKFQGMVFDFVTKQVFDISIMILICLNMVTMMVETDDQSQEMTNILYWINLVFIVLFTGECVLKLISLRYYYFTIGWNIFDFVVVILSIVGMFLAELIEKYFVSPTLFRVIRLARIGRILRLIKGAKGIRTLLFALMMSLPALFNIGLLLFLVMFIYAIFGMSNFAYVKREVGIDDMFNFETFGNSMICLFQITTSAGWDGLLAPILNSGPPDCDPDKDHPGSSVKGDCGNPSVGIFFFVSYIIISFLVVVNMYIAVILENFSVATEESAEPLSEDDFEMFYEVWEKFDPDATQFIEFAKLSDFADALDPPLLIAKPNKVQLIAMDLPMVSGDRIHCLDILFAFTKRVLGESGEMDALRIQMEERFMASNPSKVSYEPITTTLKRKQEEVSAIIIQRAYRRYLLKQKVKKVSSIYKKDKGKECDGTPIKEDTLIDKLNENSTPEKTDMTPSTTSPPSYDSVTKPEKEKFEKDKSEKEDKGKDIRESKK
Chain of TRPV3 (Q8NET8 whole entry, species assumed, the tested form may be a part): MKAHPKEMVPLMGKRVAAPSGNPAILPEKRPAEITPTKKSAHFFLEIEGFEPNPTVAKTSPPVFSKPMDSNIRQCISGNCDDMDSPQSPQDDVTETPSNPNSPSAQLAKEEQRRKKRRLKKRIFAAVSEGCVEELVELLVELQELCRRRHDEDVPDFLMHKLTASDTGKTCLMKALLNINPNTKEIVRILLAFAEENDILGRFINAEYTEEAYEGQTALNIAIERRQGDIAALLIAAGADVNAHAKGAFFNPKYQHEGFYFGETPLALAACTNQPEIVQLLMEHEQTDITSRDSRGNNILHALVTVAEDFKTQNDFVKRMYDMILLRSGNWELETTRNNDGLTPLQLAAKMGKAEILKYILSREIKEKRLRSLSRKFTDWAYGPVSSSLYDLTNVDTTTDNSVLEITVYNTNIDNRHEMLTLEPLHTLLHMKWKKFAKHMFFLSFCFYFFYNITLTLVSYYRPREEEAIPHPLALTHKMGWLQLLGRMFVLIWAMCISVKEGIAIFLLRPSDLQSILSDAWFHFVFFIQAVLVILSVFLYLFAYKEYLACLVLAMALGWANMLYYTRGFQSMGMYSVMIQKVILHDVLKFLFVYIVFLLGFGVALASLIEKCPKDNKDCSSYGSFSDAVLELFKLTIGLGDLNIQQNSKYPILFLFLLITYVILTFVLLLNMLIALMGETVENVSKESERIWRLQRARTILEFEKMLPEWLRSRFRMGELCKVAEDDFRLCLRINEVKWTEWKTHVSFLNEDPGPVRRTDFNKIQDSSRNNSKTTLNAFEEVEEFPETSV
Chain of hERG (Q12809 whole entry): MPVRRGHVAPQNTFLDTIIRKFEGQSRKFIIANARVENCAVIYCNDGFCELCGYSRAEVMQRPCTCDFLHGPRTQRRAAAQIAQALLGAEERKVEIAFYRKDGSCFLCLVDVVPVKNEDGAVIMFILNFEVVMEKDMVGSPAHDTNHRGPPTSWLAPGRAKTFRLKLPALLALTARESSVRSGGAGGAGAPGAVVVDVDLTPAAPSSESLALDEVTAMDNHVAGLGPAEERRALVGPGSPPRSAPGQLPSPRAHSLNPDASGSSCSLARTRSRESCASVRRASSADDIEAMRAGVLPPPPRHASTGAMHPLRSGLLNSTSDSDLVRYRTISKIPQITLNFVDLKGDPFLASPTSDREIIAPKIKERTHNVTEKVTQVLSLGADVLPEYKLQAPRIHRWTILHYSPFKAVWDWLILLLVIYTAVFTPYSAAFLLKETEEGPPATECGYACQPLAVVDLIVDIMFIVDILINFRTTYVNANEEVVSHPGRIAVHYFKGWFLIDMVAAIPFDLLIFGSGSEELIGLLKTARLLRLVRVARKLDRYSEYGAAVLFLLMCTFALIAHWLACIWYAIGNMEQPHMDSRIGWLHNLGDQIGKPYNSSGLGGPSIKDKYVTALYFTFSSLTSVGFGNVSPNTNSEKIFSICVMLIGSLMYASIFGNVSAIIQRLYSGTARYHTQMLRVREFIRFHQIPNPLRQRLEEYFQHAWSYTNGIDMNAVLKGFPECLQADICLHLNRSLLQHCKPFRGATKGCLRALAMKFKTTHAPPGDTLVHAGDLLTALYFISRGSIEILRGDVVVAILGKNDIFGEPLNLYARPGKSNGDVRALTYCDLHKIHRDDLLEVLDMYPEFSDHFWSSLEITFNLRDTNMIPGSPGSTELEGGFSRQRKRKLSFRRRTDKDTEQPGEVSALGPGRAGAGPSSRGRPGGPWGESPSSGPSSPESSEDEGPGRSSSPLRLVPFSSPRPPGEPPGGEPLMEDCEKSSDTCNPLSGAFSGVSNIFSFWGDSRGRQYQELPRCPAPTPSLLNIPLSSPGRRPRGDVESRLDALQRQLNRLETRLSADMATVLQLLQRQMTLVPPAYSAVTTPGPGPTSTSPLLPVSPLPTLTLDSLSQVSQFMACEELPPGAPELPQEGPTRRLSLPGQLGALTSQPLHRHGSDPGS
Chain of TRPV1 (hTRPV1) (Q8NER1 whole entry): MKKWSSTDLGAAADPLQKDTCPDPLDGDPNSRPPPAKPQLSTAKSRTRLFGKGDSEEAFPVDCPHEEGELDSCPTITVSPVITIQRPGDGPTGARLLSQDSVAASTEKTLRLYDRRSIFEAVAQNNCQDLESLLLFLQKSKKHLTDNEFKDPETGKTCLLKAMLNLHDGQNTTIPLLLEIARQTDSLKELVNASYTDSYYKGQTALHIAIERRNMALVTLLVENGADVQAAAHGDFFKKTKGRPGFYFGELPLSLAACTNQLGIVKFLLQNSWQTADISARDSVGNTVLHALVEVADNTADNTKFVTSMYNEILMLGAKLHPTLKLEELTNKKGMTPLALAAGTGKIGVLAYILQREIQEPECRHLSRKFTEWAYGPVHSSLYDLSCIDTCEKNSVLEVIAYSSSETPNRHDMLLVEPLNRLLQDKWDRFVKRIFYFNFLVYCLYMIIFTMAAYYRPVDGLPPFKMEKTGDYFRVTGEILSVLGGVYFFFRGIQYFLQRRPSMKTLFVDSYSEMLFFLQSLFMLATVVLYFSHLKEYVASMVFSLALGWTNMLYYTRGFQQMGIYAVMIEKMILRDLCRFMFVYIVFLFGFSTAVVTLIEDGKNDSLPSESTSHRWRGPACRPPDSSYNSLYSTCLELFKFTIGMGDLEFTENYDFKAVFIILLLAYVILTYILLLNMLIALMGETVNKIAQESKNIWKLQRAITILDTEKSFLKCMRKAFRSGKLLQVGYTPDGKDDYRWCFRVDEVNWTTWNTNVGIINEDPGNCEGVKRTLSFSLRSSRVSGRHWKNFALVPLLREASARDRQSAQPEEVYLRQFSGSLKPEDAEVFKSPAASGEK

The term IC50 denotes the concentration needed to halve the response being measured. As for `Cc1cccc2c1N(C(=O)CSc1ncccc1C#N)CCC2`, the values for the IC50 at TRPV3 (setting [1]) and on TRPV3 (setting [2]) were at most 1 µM and at most 0.5 µM, respectively.
On the same counts, the results for `Cc1cnc(SCC(=O)N2CCCc3cccc(C)c32)cc1C` are at most 0.2 µM and at most 0.2 µM.
On to `Cc1cccc2c1N(C(=O)CSc1ccc(Cl)cn1)CCC2` [Compound 16, 2-(5-Chloro-pyridin-2-ylsulfanyl)-1-(8-methyl-3,4-dihydro-2H-quinolin-1-yl)-ethanone], for which the concentration for half-maximal inhibition (IC50) was at least 5 µM on hERG, at most 0.5 µM on TRPV3 (setting [1]) and at most 0.5 µM at TRPV3 (setting [2]).
Take `O=C(CSc1ccc(C(F)(F)F)cn1)N1CCCc2ccccc21`: the half-inhibitory concentration (IC50) on NaV1.2 is at least 30 µM; at TRPV3 (setting [1]), at most 5 µM; at TRPV3 (setting [2]), at most 1 µM.
As for `Cc1cccc2c1N(C(=O)CSc1ncc(C(F)(F)F)cc1Cl)CCC2` [Compound 10, 2-(3-chloro-5-trifluoromethyl-pyridine-2-ylsulfanyl)-1-(8-methyl-3,4-dihydro-2H-quinolin-1-yl)-ethanone], the values for the IC50 on TRPV3 (setting [1]) and at TRPV3 (setting [2]) were at most 0.2 µM and at most 0.5 µM, respectively.
On the same counts, the results for `Cc1cccc2c1N(C(=O)CSc1ccccn1)CCC2` [Compound 12, 1-(8-methyl-3,4-dihydro-2H-quinolin-1-yl)-2-(pyridine-2-ylsulfanyl)-ethanone] are at most 5 µM and at most 10 µM.
On the same counts, the results for `Cc1cccc2c1N(C(=O)CSc1ncc(Cl)cc1Cl)CCC2` are at most 0.2 µM and at most 0.2 µM.
Regarding `Cc1cccc2c1N(C(=O)CSc1ncccc1C(F)(F)F)CCC2` [Compound 8, 1-(8-methyl-3,4-dihydro-2H-quinolin-1-yl)-2-(3-trifluoromethyl-pyridin-2-ylsulfanyl)-ethanone], the half-inhibitory concentration (IC50) was at most 1 µM at TRPV3 (setting [1]) and at most 5 µM on TRPV3 (setting [2]).
Regarding `Cc1cccc2c1N(C(=O)CSc1ncc(C(F)(F)F)cc1F)CCC2`, the 50% inhibitory concentration (IC50) at TRPV3 (setting [1]) and at TRPV3 (setting [2]) was at most 0.2 µM in each case.
Consider `Cc1cccc2c1N(C(=O)CSc1ccc(C(F)(F)F)cn1)CCC2` [Compound 6, 2-(5-trifluoromethyl-pyridine-2-ylsulfanyl)-1-(8-methyl-3,4-dihydro-2H-quinolin-1-yl)-ethanone], for which the IC50 on TRPV1 (hTRPV1) was at least 20 µM; on hERG, at least 30 µM; at NaV1.2 it was at least 30 µM; at TRPV3 (setting [1]) it was at most 0.5 µM; at TRPV3 (setting [2]), at most 0.2 µM.
`CCc1cc(C(F)(F)F)cnc1SCC(=O)N1CCCc2cccc(C)c21`: the concentration for half-maximal inhibition (IC50) at TRPV3 (setting [1]) and at TRPV3 (setting [2]) was at most 5 µM throughout.
With `Cc1ccc(SCC(=O)N2CCCc3cccc(C)c32)nc1` [Compound 24, 1-(8-Methyl-3,4-dihydro-2H-quinolin-1-yl)-2-(5-methyl-pyridin-2-ylsulfanyl)-ethanone], the IC50 at TRPV3 (setting [1]) is at most 5 µM; on TRPV3 (setting [2]), at most 10 µM.
On the same counts, the results for `COc1cccc2c1N(C(=O)CSc1ncccc1Cl)CCC2` are at most 0.5 µM and at most 0.5 µM.
On the same counts, the results for `COC(=O)c1cnc(SCC(=O)N2CCCc3cccc(C)c32)c(Cl)c1` are at most 5 µM and at most 5 µM.
On the same counts, the results for `Cc1cccc2c1N(C(=O)CSc1ccc(C#N)cn1)CCC2` are at most 10 µM and at most 5 µM.
With `Cc1cccc2c1N(C(=O)CSc1cc(C#N)ccn1)CCC2`, the half-inhibitory concentration (IC50) on TRPV3 (setting [1]) and at TRPV3 (setting [2]) was at most 10 µM in each case.
As to `Cc1cccc2c1N(C(=O)CSc1ncccc1Cl)CCC2` [Compound 20, 2-(3-chloro-pyridin-2-ylsulfanyl)-1-(8-methyl-3,4-dihydro-2H-quinolin-1-yl)-ethanone], the IC50 was at least 10 µM at hERG, at least 30 µM on NaV1.2, at most 0.2 µM at TRPV3 (setting [1]) and at most 1 µM at TRPV3 (setting [2]).
For the compound `Cc1cccc2c1N(C(=O)CSc1ccc(Br)cn1)CCC2`, the IC50 on TRPV3 (setting [1]) and on TRPV3 (setting [2]) was at most 0.5 µM each time.
On to `Cc1ccnc(SCC(=O)N2CCCc3cccc(C)c32)c1C`, for which the IC50 at TRPV3 (setting [1]) is at most 5 µM; at TRPV3 (setting [2]), at most 1 µM.
Regarding `O=C(CSc1ccc(Cl)cn1)N1CCCc2ccccc21` [Compound 21, 2-(5-chloro-pyridine-2-ylthio)-1-(3,4-dihydroquinolin-1-(2H)-yl)-ethanone], the IC50 on TRPV3 (setting [1]) and on TRPV3 (setting [2]) was at most 5 µM throughout.
